Results as given in patent US12679849B2, “Macrocyclic compounds as STING agonists” (LUPIN LIMITED, priority 2019, dated 2026).

Assays:
IFNβ = experiment: Cytokine (IFNβ) secretion in serum samples from CT-26 tumor bearing BALB/c mice; format: in vivo, mouse; conditions: serum of CT-26 tumor-bearing BALB/c mice, 0.5 mg/kg, 3.5 h
Experimental: Quantification of the Cytokine Secretion in Serum Samples from the CT-26 Tumor Bearing BALB/c Mice
CT-26 tumor-bearing animals were administered with test compounds at the dose of 0.5 mg/kg, in a dose-volume of 5 ml/kg. Serum samples were collected at designated time points (3.5 h) and frozen at −80° C. till further estimation. Mouse serum samples were diluted appropriately with dilution buffer before estimation of IFNβ utilizing commercially available kits (VeriKine Mouse IFN Beta ELISA, PBL assay science, Catalog No 42400-2). Raw data values were corrected with the dilution factor and finally expressed in pg/mL.

Human STING = target: T1, Human STING (Homo sapiens, UniProt Q86WV6, G230A/H232R/R293Q/R71H); experiment: Stimulation of human STING signalling in THP1-Blue ISG SEAP reporter cell line; format: cell-based; conditions: THP1-Blue ISG cells, 18-20 hours incubation
T1 construct: using human THP1-Blue™ ISG SEAP based reporter cell line (Invivogen); host or cells: THP1-Blue ISG (human monocytic THP-1 derived SEAP reporter line)
T1 sequence (Q86WV6 whole entry R71H/G230A/H232R/R293Q): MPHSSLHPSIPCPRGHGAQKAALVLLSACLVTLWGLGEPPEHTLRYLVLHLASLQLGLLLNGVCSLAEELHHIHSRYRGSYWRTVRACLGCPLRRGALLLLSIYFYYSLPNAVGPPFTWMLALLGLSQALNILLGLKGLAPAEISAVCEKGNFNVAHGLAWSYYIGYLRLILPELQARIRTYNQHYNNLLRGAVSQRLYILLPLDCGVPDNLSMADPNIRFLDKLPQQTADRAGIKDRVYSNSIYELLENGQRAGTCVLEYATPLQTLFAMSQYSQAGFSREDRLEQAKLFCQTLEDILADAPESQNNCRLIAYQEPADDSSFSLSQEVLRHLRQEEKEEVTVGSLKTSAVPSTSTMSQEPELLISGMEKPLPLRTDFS
Experimental: Stimulation of Human STING Signalling in THP1 Cell Line
Compounds were tested for their STING activation potential using human THP1-Blue™ ISG SEAP based reporter cell line (Invivogen). Briefly, THP1-Blue ISG cells (100,000 cells/well) in 96 well plate were treated with varying concentrations of test and reference compounds and incubated at 37° C. with 5% CO2 for 18-20 hours. The control untreated cells were also set up. Post incubation, the cell supernatant was tested for SEAP (Secreted Embryonic Alkaline Phosphatase) activity using the QuantiBlue™ substrate reagent (Invivogen). The formation of blue coloured product was quantified by measuring absorbance at wavelength of 620 nm using PheraStar/Tecan reader. The average of duplicate readouts for each data point was plotted in GraphPad prism 6 against the concentration of test or reference compound to calculate EC50 value. The fold of SEAP induction or increase in luminescence at different data points was estimated against the un-stimulated cell control set.

CCn1nc(C)cc1C(=O)Nc1nc2cc(C(N)=O)cc3c2n1C/C=C/Cn1c(NC(=O)c2cc(C)nn2CC)nc2cc(C(N)=O)cc(c21)OCC(N1CC2CCC(C1)O2)CO3 [Compound 1, (E)-8-(8-oxa-3-azabicyclo[3.2.1]octan-3-yl)-1,15-bis(1-ethyl-3-methyl-1H-pyrazole-5-carboxamido)-8,9,16,19-tetrahydro-7H-6,10-dioxa-2,14,15a,19a-tetraazacyclopentadeca[3,2,1-cd:8,9,10-c′d′]diindene-4,12-dicarboxamide]
IFNβ secretion (IFNβ): 4344 pg/mL
EC50 (Human STING): 1 to 10 nM
